The values below come from US20090054470A1, “USE OF MITOCHONDRIAL ELECTRON TRANSPORT INHIBITORS TO CONTROL FOULING ORGANISMS” (priority 2005, published 2009).

One assay concerns animal fouling. The assay can be described thus: Field evaluation of marine antifouling activity (painted PVC boards immersed in sea water). Conditions: Oosterschelde at Bruinisse, average of two scores; for Fouling scores after x weeks: vinylite paint on PVC panels; for Fouling scores after 12 weeks: rosin paint on PVC panels. The source says: 2. Field Evaluation of Marine Antifouling Activity […]
Composition vinylite paint (% w/w): 9.1% test compound (74% in the dried coating), 3.2% vinylite, 87.7% cyclohexanone.
Composition rosin paint (% w/w): 6.7% test compound (18.4% in the dried coating), 34.9% rosin (69.6% in xylene), 6.3% vinyl resin, 5.7% tritolyl phosphate, 45.0% methyl isobutylketone and 1.4% xylene.
The PVC boards (10×2×0.5 cm) were painted twice to obtain a coating layer of 140 g/m^2 having a thickness of 50 μm and dried for two weeks before immersion in sea water. The exact quantity of test compound on each board was determined by comparing the initial and final weights of the PVC boards. The PVC boards were placed in a frame and suspended from the bottom of a raft at a depth of 0.6 m below the sea water surface level.
Rating system to evaluate surface fouling:
score 0: no growth on the panel score 1: up to 20% of the surface covered by fouling organisms score 2: between 21% and 40% of the surface covered by fouling organisms score 3: between 41% and 60% of the surface covered by fouling organisms score 4: between 61% and 80% of the surface covered by fouling organisms score 5: more than 81% of the surface covered by fouling organisms
Figures are an average of two scores (back and front of test panel).

The subject of assay [1] is Artemia salina instar II larvae. The assay is described as follows: In vitro efficacy against Artemia salina (larval survival). In kind it is in vivo. On the procedure: 1. In Vitro Efficacy Against Artemia salina
The crustaceous marine animal Artemia salina was used as a model organism for other marine fouling organisms.
An artificial seawater medium inoculated with approximately 30 Artemia salina instar II larvae was introcuced in each well of a 24 well microtiter plate (2 ml per well). This culture was incubated with the test compound dissolved in dimethylsulfoxide (8000 ppm stock solution in DMSO) in order to have a final concentration of the test compound ranging from 0.027 ppm to 20 ppm in 24 steps. Survival of the Artemia salina larvae was evaluated after 24 and 48 hours. Zinc pyrithione was used as a reference art known antifouling agent and a DMSO solution without test compound was used as control.
The ECX value (in […]=ppm): lowest concentration of the test compound at which moderate activity (reduced vitality of Artemia salina larvae) was observed and has been listed below in Table 1.

Take `CC(C)(C)c1ccc(CCOc2ncnc3ccccc23)cc1` [fenazaquin]: the “Fouling scores after x weeks” value with animal fouling (4 weeks) was 0; in the assay with animal fouling (8 weeks), 0; in the assay on animal fouling (15 weeks), 3 (score 3: between 41% and 60% of the surface covered by fouling organisms). Also, the “ECX (lowest concentration at which reduced vitality of Artemia salina larvae)” value in assay [1] (24 hours) and in assay [1] (48 hours) was 0.84 mg/l (=ppm) each time. Further, the “MIC (lowest concentration at which all Artemia salina larvae dead)” value (from here on “MIC”) in assay [1] (24 hours) and in assay [1] (48 hours) was 1.5 mg/l (=ppm) each time.

Turning to `CCc1nn(C)c(C(=O)NCc2ccc(C(C)(C)C)cc2)c1Cl` [tebufenpyrad], in the assay with animal fouling, the “Fouling scores after 12 weeks” value was 1.5. Further, in assay [1] (24 hours), the “ECX (lowest concentration at which reduced vitality of Artemia salina larvae)” value is on record as 1.13 mg/l (=ppm) and the “MIC” value is reported as 2 mg/l (=ppm). Besides, in assay [1] (48 hours), the “ECX (lowest concentration at which reduced vitality of Artemia salina larvae)” value was 0.84 mg/l (=ppm) and the “MIC” value is recorded as 1.5 mg/l (=ppm).

Turning to `CC(C)(C)c1ccc(CSc2cnn(C(C)(C)C)c(=O)c2Cl)cc1` [pyridaben], the “Fouling scores after 12 weeks” value in the assay with animal fouling was found to be 1.5. Moreover, in assay [1] (24 hours), the “ECX (lowest concentration at which reduced vitality of Artemia salina larvae)” value is 0.36 mg/l (=ppm) and the “MIC” value was 2 mg/l (=ppm). For the same molecule, in assay [1] (48 hours), the “ECX (lowest concentration at which reduced vitality of Artemia salina larvae)” value is listed as 0.36 mg/l (=ppm) and the “MIC” value is given as 0.48 mg/l (=ppm).

In the case of Zinc pyrithione, in assay [1] (24 hours), the “ECX (lowest concentration at which reduced vitality of Artemia salina larvae)” value was 8.44 mg/l (=ppm) and the “MIC” value is recorded as 20 mg/l (=ppm). Besides, in assay [1] (48 hours), the “ECX (lowest concentration at which reduced vitality of Artemia salina larvae)” value is recorded as 6.33 mg/l (=ppm) and the “MIC” value was 11.25 mg/l (=ppm).
